# Values of other authors, collected in patent US20100248978A1, “METHOD FOR IDENTIFYING THE INTERACTION PARTNER OF AN ACTIVE AGENT” (Bayer Cropscience AG, priority 2007, published 2010).
# Target: T1, p-hydroxyphenylpyruvate dioxygenase (HPPD) (Arabidopsis thaliana, UniProt P93836)
# T1 sequence (P93836 1-445): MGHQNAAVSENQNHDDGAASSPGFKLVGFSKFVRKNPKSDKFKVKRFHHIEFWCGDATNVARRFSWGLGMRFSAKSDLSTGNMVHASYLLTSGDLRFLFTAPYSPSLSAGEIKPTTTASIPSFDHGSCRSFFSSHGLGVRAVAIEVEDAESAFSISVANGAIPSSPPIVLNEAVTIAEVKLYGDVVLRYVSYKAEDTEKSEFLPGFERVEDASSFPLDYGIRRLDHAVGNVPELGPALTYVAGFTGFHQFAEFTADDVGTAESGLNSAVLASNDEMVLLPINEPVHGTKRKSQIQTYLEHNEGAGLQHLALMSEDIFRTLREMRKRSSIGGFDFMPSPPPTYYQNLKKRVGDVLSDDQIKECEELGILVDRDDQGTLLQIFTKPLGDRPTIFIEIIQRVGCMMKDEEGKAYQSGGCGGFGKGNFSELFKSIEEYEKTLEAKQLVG
compound,measurement,value
CS(=O)(=O)c1ccc(C(=O)C2C(=O)CCCC2=O)c(Cl)c1 [sulcotrione],inhibition of HPPD,inhibits
